Results as given in patent publication US20240082222A1, “4-CHLORO-N-[2-[(4-CHLOROPHENYL)METHYL]-3-OXO-1,2,4-THIADIAZOL-5-YL]BENZAMIDE FOR USE IN MEDICINE” (Betagenon AB, priority 2021, published 2024).
Where “and” joins values, the source holds several entries; their conditions need not be identical. Equal entries are not always repeated. Structures can show the parent of a compound that is named as a salt.

Experiment: Pharmacokinetic study in humans, sodium salt in enteric capsules, single and multiple dose (Example 2)
Assay type: in vivo, human
Protocol: An open, randomised, parallel-group study in healthy volunteers (hereafter referred to as subjects) was conducted to evaluate the exposure of 4-chloro-N-[2-[(4-chlorophenyl)methyl]-3-oxo-1,2,4-thiadiazol-5-yl]benzamide after single and multiple dose administration of 3 dose levels of the sodium salt of 4-chloro-N-[2-[(4-chlorophenyl)methyl]-3-oxo-1,2,4-thiadiazol-5-yl]benzamide and to evaluate combination with dapagliflozin at steady state.
For the study, Vcaps enteric capsules, size 0, were individually filled with 200 mg of milled test material together with 2 mg of sodium docusate, 125 mg of mannitol and 6.5 mg of sodium lauryl sulfate. […]
A screening visit (Visit 1) was performed within 28 days before randomisation and the start of IMP administration. The subjects were confined to the research clinic from the evening before Day 1 (Visit 2; Day—1). […]
Pre-dose safety assessments as well as pre- and post-dose PK assessments were performed. The subjects left the clinic after the last PK-sample on Day 1 and returned for a 24 h PK sample and dosing on Day 2 (Visit 3).
Subjects self-administered the test material at home from Day 3 to Day 15. A telephone visit to check compliance, AE status and use of concomitant medications will be performed on Day 8 (Visit 4).
The subjects returned to the clinic on Days 16 and 17 (Visits 5 and 6), for PK sampling and AE assessment. Visit 6 continued in the evening of Day 17, when the subjects were confined to the clinic until Day 18. On Day 18, pre- and post-dose PK and safety assessments were performed. The subjects left the clinic after the last PK sample on Day 18 and returned for a 24 h PK sample and dosing on Day 19 (Visit 7).
On Day 19 (Visit 7) subjects began co-administration of the test material and dapagliflozin (Forxiga), 10 mg per day for 7 days (Day 19 to Day 25). The subjects returned to the clinic on Day 25 (Visit 8) for final dosing, PK and safety assessments. A final end-of-study visit (Visit 9) for follow-up of safety assessments was conducted 28 days (+14 days) after Visit 8 or after early withdrawal.
Venous blood samples (approximately 5 mL) for the determination of plasma concentrations of 4-chloro-N-[2-[(4-chlorophenyl)methyl]-3-oxo-1,2,4-thiadiazol-5-yl]benzamide after administration of the test material were collected through an indwelling venous catheter on Days 1, 2, 16 to 19 and 25.
The blood samples were collected in pre-labelled Li-Heparin tubes. All the collected blood samples were be centrifuged at 1500 G for 10 minutes to separate plasma within 60 minutes from the sample is drawn. The separated plasma from each blood sample was be divided into 2 aliquots in pre-labelled polypropylene cryotubes (A and B samples, approximately 750 μL in each tube) and frozen at <−70° C. On Day 25, the plasma was divided in to 3 aliquots of at least 500 μL (A and B samples for the test material, and 1 sample for potential future analysis of dapagliflozin).
Samples for determination of plasma concentrations of 4-chloro-N[2-[(4-chlorophenyl)methyl]-3-oxo-1,2,4-thiadiazol-5-yl]benzamide were analysed by Lablytica Life Science AB, Uppsala, Sweden by means of a validated LS-MS/MS method.
The data of plasma concentration to respective time points for the analyte (4-chloro-N-[2-[(4-chlorophenyl)methyl]-3-oxo-1,2,4-thiadiazol-5-yl]benzamide) were used for the pharmacokinetic analysis. Pharmacokinetic analysis was performed using non-compartmental analysis (NCA) module of Phoenix WinNonlin 8.1 software to determine the following pharmacokinetic parameters.
After single dose administration of test material: • AUC0-24, Cmax, Tmax and dose proportionality (based on AUC0-24 and Cmax) (secondary endpoints). […]

[1] = 400 mg Dose Group, capsules once daily, Day 18, Geometric Mean
[2] = 400 mg Dose Group, capsules once daily, Day 18, Mean
[3] = 400 mg Dose Group, capsules once daily, Day 18, Median
[4] = 400 mg Dose Group, capsules once daily, Day 18, individual subjects, listed as test material
[5] = 800 mg Dose Group, capsules once daily, Day 18, Geometric Mean
[6] = 800 mg Dose Group, capsules once daily, Day 18, Mean
[7] = 800 mg Dose Group, capsules once daily, Day 18, Median
[8] = 800 mg Dose Group, capsules once daily, Day 18, individual subjects, listed as test material
[9] = 2000 mg Dose Group, capsule once daily, Day 18, Geometric Mean
[10] = 2000 mg Dose Group, capsule once daily, Day 18, Mean
[11] = 2000 mg Dose Group, capsule once daily, Day 18, Median
[12] = 2000 mg Dose Group, capsule once daily, Day 18, individual subjects, listed as test material
[13] = capsule once daily, Day 18, individual subjects, listed as test material
[14] = dose-normalised, 400 mg Dose Group, capsules once daily, Day 18, Geometric Mean
[15] = dose-normalised, 400 mg Dose Group, capsules once daily, Day 18, Mean
[16] = dose-normalised, 400 mg Dose Group, capsules once daily, Day 18, Median
[17] = dose-normalised, 400 mg Dose Group, capsules once daily, Day 18, individual subjects, listed as test material
[18] = dose-normalised, 800 mg Dose Group, capsules once daily, Day 18, Geometric Mean
[19] = dose-normalised, 800 mg Dose Group, capsules once daily, Day 18, Mean
[20] = dose-normalised, 800 mg Dose Group, capsules once daily, Day 18, Median
[21] = dose-normalised, 800 mg Dose Group, capsules once daily, Day 18, individual subjects, listed as test material
[22] = dose-normalised, 2000 mg Dose Group, capsule once daily, Day 18, Geometric Mean

increase in systemic exposure compared to a standard suspension of the active ingredient (200 mg of the sodium salt): up to five-fold
CLss_F [1]: 267.1 mL/h
Clast [1]: 62.75 µg/mL
Tlast [1]: 23.93 h
CLss_F [2]: 271.8 mL/h
Clast [2]: 64.03 µg/mL
Tlast [2]: 23.93 h
CLss_F [3]: 286.3 mL/h
Clast [3]: 60.9 µg/mL
Tlast [3]: 23.93 h
Tlast [4]: 23.9 h (6×) and 24 h
CLss_F [5]: 316.5 mL/h
Tlast [5]: 23.92 h
CLss_F [6]: 321.8 mL/h
Tlast [6]: 23.92 h
CLss_F [7]: 292.8 mL/h
Tlast [7]: 23.92 h
Tlast (800 mg Dose Group, capsules once daily, Day 18, individual subjects): 23.9 h
CLss_F [9]: 202.7 mL/h
Clast [9]: 42.19 µg/mL
Tlast [9]: 23.92 h
CLss_F [10]: 207.9 mL/h
Tlast [10]: 23.92 h
CLss_F [11]: 210.5 mL/h
Clast [11]: 38.7 µg/mL
Tlast [11]: 23.92 h
Tlast (capsule once daily, Day 18, individual subjects): 23.9 h
accumulation in the blood plasma after repeat dosing (capsules, 200-800 mg once daily): substantial accumulation
AUC_TAU_D [14]: 3.744 µg·h/mL/mg
AUClast_D [14]: 3.788 µg·h/mL/mg
Cmax_D [14]: 0.1741 µg/mL/mg
AUC_TAU_D [15]: 3.816 µg·h/mL/mg
AUClast_D [15]: 3.852 µg·h/mL/mg
Cmax_D [15]: 0.1769 µg/mL/mg
AUC_TAU_D [16]: 3.504 µg·h/mL/mg
AUClast_D [16]: 3.703 µg·h/mL/mg
Cmax_D [16]: 0.1653 µg/mL/mg
AUC_TAU_D [18]: 3.159 µg·h/mL/mg
AUClast_D [18]: 3.24 µg·h/mL/mg
Cmax_D [18]: 0.1472 µg/mL/mg
AUC_TAU_D [19]: 3.205 µg·h/mL/mg
AUClast_D [19]: 3.274 µg·h/mL/mg
Cmax_D [19]: 0.1482 µg/mL/mg
AUC_TAU_D [20]: 3.416 µg·h/mL/mg
AUClast_D [20]: 3.337 µg·h/mL/mg
Cmax_D [20]: 0.1525 µg/mL/mg
AUC_TAU_D [22]: 4.934 µg·h/mL/mg
AUClast_D [22]: 5.139 µg·h/mL/mg
Cmax D [22]: 0.2432 µg/mL/mg
AUC_TAU_D (dose-normalised, 2000 mg Dose Group, capsule once daily, Day 18, Mean): 5.082 µg·h/mL/mg
Compound: O=C(Nc1nc(=O)n(Cc2ccc(Cl)cc2)s1)c1ccc(Cl)cc1 [Compound of formula II, sodium salt of 4-chloro-N-[2-[(4-chlorophenyl)methyl]-3-oxo-1,2,4-thiadiazol-5-yl]benzamide]
AUC_TAU [4]: 1300 µg·h/mL and 1750 µg·h/mL and 1480 µg·h/mL and 1320 µg·h/mL and 2100 µg·h/mL
AUClast [4]: 1290 µg·h/mL and 1740 µg·h/mL and 1480 µg·h/mL and 1320 µg·h/mL and 2090 µg·h/mL and 1650 µg·h/mL
CLss_F [4]: 330 mL/h and 308 mL/h and 229 mL/h and 270 mL/h and 303 mL/h and 191 mL/h
Clast [4]: 54.7 µg/mL and 50.4 µg/mL and 73.2 µg/mL and 60.9 µg/mL and 49.2 µg/mL and 86.9 µg/mL and 72.9 µg/mL
Tmax [4]: 12 h and 2 h and 3 h and 0.25 h and 23.9 h
AUC_TAU [8]: 2500 µg·h/mL and 2910 µg·h/mL and 2730 µg·h/mL and 2870 µg·h/mL
AUClast [8]: 2490 µg·h/mL and 2900 µg·h/mL and 2620 µg·h/mL and 2980 µg·h/mL and 2720 µg·h/mL and 2580 µg·h/mL and 2860 µg·h/mL
CLss_F [8]: 442 mL/h and 321 mL/h and 275 mL/h and 293 mL/h and 279 mL/h
Clast [8]: 98 μg/ml and 120 μg/ml and 115 μg/ml (2×) and 127 μg/ml and 110 μg/ml and 117 μg/ml
Cmax [8]: 118 µg/mL and 127 µg/mL and 115 µg/mL and 130 µg/mL and 126 µg/mL and 117 µg/mL and 128 µg/mL
Tmax [8]: 9.98 h and 0 h and 23.9 h and 10 h and 6 h
AUC_TAU [12]: 1130 µg·h/mL and 841 µg·h/mL and 1600 µg·h/mL and 802 µg·h/mL and 950 µg·h/mL and 774 µg·h/mL and 1010 µg·h/mL
CLss_F [12]: 176 mL/h and 238 mL/h and 125 mL/h and 249 mL/h and 210 mL/h and 259 mL/h and 198 mL/h
Tmax [12]: 0.267 h and 23.9 h and 0 h and 10 h and 12 h
AUClast [13]: 1130 µg·h/mL and 1400 µg·h/mL and 838 µg·h/mL and 1600 µg·h/mL and 800 µg·h/mL and 947 µg·h/mL and 772 µg·h/mL and 1010 µg·h/mL
Clast [13]: 47 µg/mL and 62 µg/mL and 33.5 µg/mL and 68 µg/mL and 33.3 µg/mL and 36.7 µg/mL and 30.4 µg/mL and 40.7 µg/mL
Cmax [13]: 52.1 µg/mL and 62 µg/mL and 42 µg/mL and 71.9 µg/mL and 40.2 µg/mL and 46.2 µg/mL and 34.6 µg/mL and 49.9 µg/mL
AUC_TAU_D [17]: 3.03 µg·h/mL/mg and 3.24 µg·h/mL/mg and 4.37 µg·h/mL/mg and 3.71 µg·h/mL/mg and 3.3 µg·h/mL/mg and 5.24 µg·h/mL/mg
AUClast_D [17]: 3.02 µg·h/mL/mg and 3.23 µg·h/mL/mg and 4.36 µg·h/mL/mg and 3.7 µg·h/mL/mg and 3.29 µg·h/mL/mg and 5.23 µg·h/mL/mg and 4.13 µg·h/mL/mg
Cmax_D [17]: 0.141 µg/mL/mg and 0.15 µg/mL/mg and 0.193 µg/mL/mg and 0.165 µg/mL/mg and 0.161 µg/mL/mg and 0.248 µg/mL/mg and 0.182 µg/mL/mg
AUC_TAU_D [21]: 2.26 µg·h/mL/mg and 3.12 µg·h/mL/mg and 3.64 µg·h/mL/mg and 3.27 µg·h/mL/mg and 3.42 µg·h/mL/mg and 3.59 µg·h/mL/mg
AUClast_D [21]: 2.25 µg·h/mL/mg and 3.11 µg·h/mL/mg and 3.63 µg·h/mL/mg and 144 µg·h/mL/mg and 3.73 µg·h/mL/mg and 3.4 µg·h/mL/mg and 3.22 µg·h/mL/mg and 3.58 µg·h/mL/mg
Cmax_D [21]: 0.109 µg/mL/mg and 0.148 µg/mL/mg and 0.159 µg/mL/mg and 0 µg/mL/mg and 0.163 µg/mL/mg and 0.158 µg/mL/mg and 0.146 µg/mL/mg and 0.16 µg/mL/mg
